Measurements reported in the supplement of paper PMC10307832.

Assays:
Assay in all cases: relative viability (nuclei count vs DMSO), 5 days (fraction); higher = more cells survive
Bortezomib + Linsitinib = compound: CC(C)C[C@H](NC(=O)[C@H](Cc1ccccc1)NC(=O)c1cnccn1)B(O)O [Bortezomib] + C[C@]1(O)C[C@@H](c2nc(-c3ccc4ccc(-c5ccccc5)nc4c3)c3c(N)nccn32)C1 [Linsitinib] (partner 1 µM)
Procedure, shortened: (§1)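 Cells from lung cancer lines were seeded into 1536-well plates and, one day later, dosed by pin tool. Treatments were either a single drug or a fixed dose of an anchor drug with five library-drug doses (not always all listed) in √10 steps. After 5 days, nuclei were stained in a one-step fixation (final 0.05% Triton X-100, 1% formaldehyde, 1 ug/ml Hoechst) and counted on 4× images, and relative viability is the treated-to-vehicle nuclei ratio, as the median of duplicate plates.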

Obatoclax + Bortezomib = compound: COC1=CC(c2cc3ccccc3[nH]2)=N/C1=C\c1[nH]c(C)cc1C [Obatoclax] + CC(C)C[C@H](NC(=O)[C@H](Cc1ccccc1)NC(=O)c1cnccn1)B(O)O [Bortezomib] (partner 0.002 µM)
Procedure, shortened: as §1

Obatoclax + Navitoclax = compound: COC1=CC(c2cc3ccccc3[nH]2)=N/C1=C\c1[nH]c(C)cc1C [Obatoclax] + CC1(C)CCC(c2ccc(Cl)cc2)=C(CN2CCN(c3ccc(C(=O)NS(=O)(=O)c4ccc(N[C@H](CCN5CCOCC5)CSc5ccccc5)c(S(=O)(=O)C(F)(F)F)c4)cc3)CC2)C1 [Navitoclax] (partner 0.5 µM)
Procedure, shortened: as §1

Obatoclax + Decitabine = compound: COC1=CC(c2cc3ccccc3[nH]2)=N/C1=C\c1[nH]c(C)cc1C [Obatoclax] + Nc1ncn([C@H]2C[C@H](O)[C@@H](CO)O2)c(=O)n1 [Decitabine] (partner 2 µM)
Procedure, shortened: as §1

Cell Line | relative viability (Bortezomib + Linsitinib; first compound 0.0002 µM) | relative viability (Bortezomib + Linsitinib; first compound 0.000632 µM) | relative viability (Bortezomib + Linsitinib; first compound 0.002 µM) | relative viability (Bortezomib + Linsitinib; first compound 0.006325 µM) | relative viability (Bortezomib + Linsitinib; first compound 0.02 µM) | relative viability (Obatoclax + Bortezomib; first compound 0.01 µM) | relative viability (Obatoclax + Bortezomib; first compound 0.03162 µM) | relative viability (Obatoclax + Bortezomib; first compound 0.1 µM) | relative viability (Obatoclax + Bortezomib; first compound 0.3162 µM) | relative viability (Obatoclax + Bortezomib; first compound 1 µM) | relative viability (Obatoclax + Navitoclax; first compound 0.01 µM) | relative viability (Obatoclax + Navitoclax; first compound 0.03162 µM) | relative viability (Obatoclax + Navitoclax; first compound 0.1 µM) | relative viability (Obatoclax + Navitoclax; first compound 0.3162 µM) | relative viability (Obatoclax + Navitoclax; first compound 1 µM) | relative viability (Obatoclax + Decitabine; first compound 0.01 µM) | relative viability (Obatoclax + Decitabine; first compound 0.03162 µM) | relative viability (Obatoclax + Decitabine; first compound 0.1 µM) | relative viability (Obatoclax + Decitabine; first compound 0.3162 µM) | relative viability (Obatoclax + Decitabine; first compound 1 µM)
NCI-H727 | 0.354 | 0.289 | 0.408 | 0.189 | 0.0878 | 0.892 | 0.827 | 1.17 | 0.847 | 0.335 | 0.416 | 0.487 | 0.409 | 0.451 | 0.262 | 0.916 | 0.731 | 0.798 | 0.591 | 0.872
NCI-H1944 | 1.13 | 1.06 | 1.06 | 1.23 | 0.627 | – | – | – | – | – | 0.97 | 1.01 | 1.05 | 1.05 | 1.08 | 0.429 | 0.42 | 0.464 | 0.431 | 0.388
NCI-H1437 | 1.04 | 1.1 | 0.885 | 0.0922 | 0.101 | 0.463 | 0.421 | 0.477 | 0.438 | 0.358 | 1.03 | 1.1 | 1.08 | 1.1 | 0.746 | 0.626 | 0.426 | 0.601 | 0.537 | 0.43
NCI-H441 | 0.497 | 0.41 | 0.406 | 0.343 | 0.103 | 0.378 | 0.498 | 0.413 | 0.291 | 0.22 | 0.775 | 0.535 | 0.832 | 0.546 | 0.259 | 0.213 | 0.272 | 0.287 | 0.2 | 0.194
EMC-BAC-2 | 0.828 | 0.805 | 0.786 | 0.46 | 0.132 | 1.15 | 1.04 | 1.03 | 1.1 | 1.16 | 1.15 | 1.18 | 1.13 | 1.19 | 1.22 | 0.95 | 0.977 | – | 0.98 | 0.541
NCI-H647 | 1.09 | 1.28 | 1.12 | 0.0274 | 0.0402 | 0.902 | 0.853 | 0.541 | 0.351 | 0.143 | 1.11 | 0.974 | 0.633 | 0.477 | 0.229 | 0.422 | 0.27 | 0.438 | 0.3 | 0.112
CAL-12T | 0.898 | 0.852 | 0.742 | 0.662 | 0.165 | 0.969 | 1.02 | 0.915 | 0.697 | 0.567 | 1.06 | 1.03 | 1.24 | 0.926 | 0.103 | – | – | – | – | –
NCI-H1792 | 0.526 | 0.594 | 0.352 | 0.537 | 0.221 | 0.992 | 0.926 | – | 0.917 | 0.975 | 0.647 | 0.586 | – | 0.626 | 0.561 | 0.58 | 0.469 | 0.537 | 0.427 | 0.581
H3255 | 0.914 | 1.02 | 0.705 | 0.263 | 0.19 | 0.764 | 0.784 | 0.725 | 0.762 | 0.793 | 0.517 | 0.544 | 0.681 | 0.537 | 0.438 | 0.595 | 0.581 | – | 0.589 | 0.623
HCC-78 | 0.509 | 0.394 | 0.458 | 0.128 | 0.18 | 0.539 | 0.402 | 0.718 | 0.456 | 0.743 | 0.81 | 0.807 | – | 0.575 | 0.668 | 0.617 | 0.511 | 0.706 | 0.616 | 0.699
EBC-1 | 0.902 | 0.801 | 0.516 | 0.0706 | 0.0667 | 0.637 | 0.602 | 0.481 | 0.341 | 0.232 | 0.449 | 0.379 | 0.395 | 0.16 | 0.177 | – | – | – | – | –
NCI-H2405 | 0.868 | – | 0.32 | 0.147 | 0.169 | 1.01 | 0.852 | – | 0.982 | 1.07 | 0.82 | 1.06 | – | 0.862 | 0.857 | 0.769 | 0.717 | – | 0.762 | 0.63
A549 | 0.667 | 0.538 | 0.423 | 0.122 | 0.0542 | – | – | – | – | – | 1.2 | 1.29 | 1.16 | 0.682 | 0.0677 | 0.205 | 0.122 | – | 0.282 | 0.309
NCI-H3122 | 1.01 | 1.04 | 1.09 | 0.606 | 0.179 | 0.966 | 1.01 | 1.02 | 1.03 | 1.06 | 1.02 | 1.01 | 1.04 | 1.04 | 1.02 | 0.434 | 0.489 | 0.39 | 0.435 | 0.453
NCI-H1563 | 1.25 | 1.25 | 1.02 | 0.534 | 0.466 | 0.905 | 0.883 | 0.835 | 0.714 | 0.833 | – | – | – | – | – | – | – | – | – | –
HCC-44 | 0.618 | 0.61 | 0.515 | 0.19 | 0.113 | 0.861 | 0.836 | 0.822 | 0.769 | 0.386 | 0.923 | 0.803 | 0.989 | 0.911 | 1.05 | 0.968 | 0.643 | 0.966 | 0.902 | 0.84
PC-3 [JPC-3] | 0.989 | 0.929 | 0.87 | 0.916 | 0.186 | 0.905 | 0.789 | 0.815 | 0.827 | 0.977 | 0.853 | 0.682 | 0.801 | 0.796 | 0.668 | 0.826 | 0.799 | 0.776 | 0.732 | 0.501
NCI-H1993 | 0.683 | 0.766 | 0.733 | 0.499 | 0.58 | 1.2 | 1.05 | 1.22 | 1.2 | 1.2 | 1.04 | 0.816 | 1.03 | 0.867 | 0.982 | 0.659 | 0.545 | 0.618 | 0.611 | 0.612
